Molecular target: T1, E-selectin (Homo sapiens, UniProt P16581)
T1 sequence (P16581 whole entry): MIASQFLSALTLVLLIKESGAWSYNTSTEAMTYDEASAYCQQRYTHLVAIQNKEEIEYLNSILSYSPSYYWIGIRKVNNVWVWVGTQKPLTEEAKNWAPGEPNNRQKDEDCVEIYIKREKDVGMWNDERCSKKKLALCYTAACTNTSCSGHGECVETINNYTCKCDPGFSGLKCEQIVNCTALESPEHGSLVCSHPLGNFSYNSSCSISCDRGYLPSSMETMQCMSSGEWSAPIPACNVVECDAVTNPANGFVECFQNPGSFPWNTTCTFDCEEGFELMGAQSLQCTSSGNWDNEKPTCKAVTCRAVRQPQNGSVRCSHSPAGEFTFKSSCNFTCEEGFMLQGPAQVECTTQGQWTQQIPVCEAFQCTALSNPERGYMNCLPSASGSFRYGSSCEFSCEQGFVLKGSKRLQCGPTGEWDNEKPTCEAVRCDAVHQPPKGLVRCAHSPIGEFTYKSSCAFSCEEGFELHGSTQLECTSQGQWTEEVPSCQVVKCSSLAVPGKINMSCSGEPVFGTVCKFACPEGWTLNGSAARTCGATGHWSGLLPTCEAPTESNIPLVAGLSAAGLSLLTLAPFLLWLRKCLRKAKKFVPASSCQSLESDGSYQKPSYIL
Assay: Tested in vitro to inhibit cell adhesion of HL-60 cells to recombinant human soluble Selectin E

Compound | IC50 [µM]
C=CC(=O)NCCCCCCO[C@@H]1O[C@@H](CO)[C@@H](O[C@@H]2O[C@@H](CO)[C@H](O)[C@H](O[C@]3(C(=O)O)C[C@@H](O)[C@@H](NC(C)=O)[C@H]([C@H](O)[C@H](O)CO)O3)[C@@H]2O)[C@H](O[C@@H]2O[C@@H](C)[C@@H](O)[C@H](O)[C@@H]2O)[C@@H]1NC(=O)c1ccc2ccccc2c1 | 90.2
CCO[C@@H]1O[C@@H](CO)[C@@H](O[C@@H]2O[C@@H](CO)[C@H](O)[C@H](O[C@]3(C(=O)O)C[C@@H](O)[C@@H](NC(C)=O)[C@H]([C@H](O)[C@H](O)CO)O3)[C@@H]2O)[C@H](O[C@@H]2O[C@@H](C)[C@@H](O)[C@H](O)[C@@H]2O)[C@@H]1NC(C)=O | 1760

Source: BindingDB's records for doi:10.7270/Q28S4S3D (n/a, 1997)
